According to ChEMBL document CHEMBL1158268, “Antiplatelet of vasorelaxing actions of some benzylisoquinoline and phenanthrene alkaloids” (1996):

Columns and labels:
Set-up in all cases: scale not given: the % may be the effect or the level left
Platelet [1] = test: Inhibition of platelet-activity factor-induced platelet aggregation in rabbit platelet-rich plasma at 100 ug/ml by turbidimetric method; assay type: functional, Oryctolagus cuniculus
Platelet [2] = test: Inhibition of adenosine diphosphate-induced platelet aggregation in rabbit platelet-rich plasma at 100 ug/ml by turbidimetric method; assay type: functional, Oryctolagus cuniculus
Platelet [3] = test: Inhibition of collagen-induced platelet aggregation in rabbit platelet-rich plasma at 100 ug/ml by turbidimetric method; assay type: functional, Oryctolagus cuniculus
Platelet [4] = test: Inhibition of arachidonic acid-induced platelet aggregation in rabbit platelet-rich plasma at 100 ug/ml by turbidimetric method; assay type: functional, Oryctolagus cuniculus
Aorta [5] = test: Vasorelaxant activity against high potassium-induced contraction in Wistar rat thoracic aorta at 100 ug/ml; assay type: functional
Aorta [6] = test: Vasorelaxant activity against norepinephrine-induced tonic contraction in Wistar rat thoracic aorta at 100 ug/ml; assay type: functional
Aorta [7] = test: Vasorelaxant activity against norepinephrine-induced phasic contraction in Wistar rat thoracic aorta at 100 ug/ml; assay type: functional
Platelet [8] = test: Inhibition of adenosine diphosphate-induced platelet aggregation in rabbit platelet-rich plasma at 50 ug/ml by turbidimetric method; assay type: functional, Oryctolagus cuniculus
Platelet [9] = test: Inhibition of platelet-activity factor-induced platelet aggregation in rabbit platelet-rich plasma at 50 ug/ml by turbidimetric method; assay type: functional, Oryctolagus cuniculus
Platelet [10] = test: Inhibition of collagen-induced platelet aggregation in rabbit platelet-rich plasma at 50 ug/ml by turbidimetric method; assay type: functional, Oryctolagus cuniculus
Platelet [11] = test: Inhibition of arachidonic acid-induced platelet aggregation in rabbit platelet-rich plasma at 50 ug/ml by turbidimetric method; assay type: functional, Oryctolagus cuniculus
Aorta [12] = test: Vasorelaxant activity against high potassium-induced contraction in Wistar rat thoracic aorta at 20 ug/ml; assay type: functional
Aorta [13] = test: Vasorelaxant activity against norepinephrine-induced phasic contraction in Wistar rat thoracic aorta at 20 ug/ml; assay type: functional
Aorta [14] = test: Vasorelaxant activity against norepinephrine-induced tonic contraction in Wistar rat thoracic aorta at 20 ug/ml; assay type: functional
Platelet [15] = test: Inhibition of adenosine diphosphate-induced platelet aggregation in rabbit platelet-rich plasma at 25 ug/ml by turbidimetric method; assay type: functional, Oryctolagus cuniculus
Platelet [16] = test: Inhibition of arachidonic acid-induced platelet aggregation in rabbit platelet-rich plasma at 25 ug/ml by turbidimetric method; assay type: functional, Oryctolagus cuniculus
Platelet [17] = test: Inhibition of platelet-activity factor-induced platelet aggregation in rabbit platelet-rich plasma at 25 ug/ml by turbidimetric method; assay type: functional, Oryctolagus cuniculus
Platelet [18] = test: Inhibition of collagen-induced platelet aggregation in rabbit platelet-rich plasma at 25 ug/ml by turbidimetric method; assay type: functional, Oryctolagus cuniculus
Aorta [19] = test: Vasorelaxant activity against norepinephrine-induced phasic contraction in Wistar rat thoracic aorta at 50 ug/ml; assay type: functional
Aorta [20] = test: Vasorelaxant activity against norepinephrine-induced tonic contraction in Wistar rat thoracic aorta at 50 ug/ml; assay type: functional
Aorta [21] = test: Vasorelaxant activity against high potassium-induced contraction in Wistar rat thoracic aorta at 50 ug/ml; assay type: functional
Aorta [22] = test: Vasorelaxant activity against high potassium-induced contraction in Wistar rat thoracic aorta at 1 ug/ml; assay type: functional
Aorta [23] = test: Vasorelaxant activity against norepinephrine-induced tonic contraction in Wistar rat thoracic aorta at 1 ug/ml; assay type: functional
Aorta [24] = test: Vasorelaxant activity against norepinephrine-induced phasic contraction in Wistar rat thoracic aorta at 1 ug/ml; assay type: functional

Row | Structure (SMILES) | Activity (Platelet [1]) | Activity (Platelet [2]) | Activity (Platelet [3]) | Activity (Platelet [4]) | Activity (Aorta [5]) | Activity (Aorta [6]) | Activity (Aorta [7]) | other results
1 | COc1ccc(C[C@@H]2c3cc(OC)c(OC)cc3CCN2C)cc1OC | 92.5% | 92.2% | 81.4% | 81.2% | – | – | – | –
2 | COc1cc2ccc3c(CCN(C)C)cc4c(c3c2cc1OC)OCO4 | 80.5% | 34.9% | 6.1% | 46.9% | 44.6% | 0% | 7.1% | –
3 | COc1ccc2c(ccc3c(CCN(C)O)cc4c(c32)OCO4)c1 | – | – | – | – | 55.8% | 91.9% | 102% | Activity (Platelet [8]): 58.6%; Activity (Platelet [9]): 74.8%; Activity (Platelet [10]): 23.5%; Activity (Platelet [11]): 0%
4 | COc1cc(CC[N+](C)(C)[O-])c2ccc3ccccc3c2c1OC | 61.1% | 37.4% | 0% | 0% | 5.8% | 27.5% | 30% | –
5 | COc1cc2ccc3c(CC[N+](C)(C)[O-])cc(OC)c(OC)c3c2cc1OC | 87.2% | 74.6% | 52.1% | 83.5% | – | – | – | Activity (Aorta [12]): 104.2%; Activity (Aorta [13]): 72.5%; Activity (Aorta [14]): 83.2%
6 | COc1cc2c(cc1OC)[C@H](Cc1ccc(O)cc1)NCC2.[O-][Cl+3]([O-])([O-])O | 78.2% | 63.1% | 83.6% | 60.5% | 43% | 90.5% | 100% | –
7 | COc1ccc(C[C@@H]2NCCc3cc(OC)c(OC)cc32)cc1.O=C(O)C(=O)O | 91.4% | 93.4% | 86.6% | 87.3% | – | – | – | –
8 | COc1ccc(C[C@H]2NCCc3cc(OC)c(OC)cc32)cc1 | 90.7% | 93.1% | 79.2% | 89.2% | – | – | – | –
9 | COc1cc2c(cc1OC)[C@H](Cc1ccc(O)cc1)N(C)CC2.O=C(O)C(=O)O | 91.5% | 89.7% | 82.4% | 79.5% | – | – | – | –
10 | COc1cc2c(cc1OC)[C@@H](Cc1ccc(O)cc1)N(C)CC2.O=C(O)C(=O)O | 93.6% | 92.7% | 88.4% | 91.3% | – | – | – | –
11 | COc1cc2c(cc1OC)[C@H](Cc1ccc(O)cc1)[N+](C)(C)CC2.[I-] | 88.4% | 93.7% | 39.6% | 66.8% | – | – | – | –
12 | COc1cc2c(cc1OC)C(Cc1ccc(O)cc1)NCC2 (racemic) | 86.4% | 30.4% | 24.7% | 49.7% | 107.8% | 95.7% | 103% | –
13 | COc1cc2c(cc1O)C(Cc1ccc(O)cc1)NCC2 (racemic) [COCLAURINE] | 72.7% | 70.2% | 69.7% | 0% | 109.9% | 93.7% | 100% | –
14 | COc1cc2c(cc1O)C(Cc1ccc(O)cc1)N(C)CC2 (racemic) [METHYL COCLAURINE] | 75.7% | 73.6% | 24.8% | 13.8% | – | – | – | Activity (Aorta [12]): 70.8%; Activity (Aorta [13]): 149.6%; Activity (Aorta [14]): 106.6%
15 | COc1ccc(C[C@H]2c3cc(O)c(OC)cc3CCN2C)cc1O [(S)-RETICULINE] | 85.9% | 58.7% | 84.2% | 39.2% | 109.3% | 110.5% | 100% | –
16 | CC(=O)Oc1ccccc1C(=O)O [ASPIRIN] | – | – | – | – | – | – | – | Activity (Platelet [15]): 77.9%; Activity (Platelet [16]): 0%; Activity (Platelet [17]): 90.4%; Activity (Platelet [18]): 87.8%
17 | COc1cc(CCN(C)C)c2ccc3ccccc3c2c1OC.[O-][Cl+3]([O-])([O-])O [ATHEROSPERMININE HCLO4] | 0% | 0% | 0% | 0% | 0% | 0% | 0% | –
18 | COc1cc(CC[N+](C)(C)C)c2ccc3ccccc3c2c1OC.[I-] [ATHEROSPERMINIUM I] | 0% | 0% | 0% | 0% | – | – | – | Activity (Aorta [12]): 38.3%; Activity (Aorta [13]): 108.3%; Activity (Aorta [14]): 100.5%
19 | COc1ccc(C[C@H]2c3cc(OC)c(OC)cc3CCN2C)cc1O [LAUDANIDINE] | – | – | – | – | – | – | – | Activity (Platelet [8]): 77.6%; Activity (Aorta [19]): 58.5%; Activity (Aorta [20]): 80.9%; Activity (Platelet [9]): 90%; Activity (Aorta [21]): 105%; Activity (Platelet [10]): 87.9%; Activity (Platelet [11]): 89%
20 | COc1cc2c(cc1O)[C@@H](Cc1ccc(O)cc1)[N+](C)(C)CC2.[I-] [MAGNOCURARINE IODIDE] | 23.2% | 69% | 87.7% | 87.4% | 134.7% | 123.5% | 122.5% | –
21 | COC(=O)C1=C(C)NC(C)=C(C(=O)OC)C1c1ccccc1[N+](=O)[O-] [NIFEDIPINE] | – | – | – | – | – | – | – | Activity (Aorta [22]): 0%
22 | COc1cc2c(cc1OC)[C@H](Cc1ccc(O)cc1)NCC2 [NORARMEPAVINE] | 57.8% | 69.7% | 83.4% | 75.5% | 71.2% | 105.7% | 121.9% | –
23 | COc1cc2nc(N3CCN(C(=O)c4ccco4)CC3)nc(N)c2cc1OC [PRAZOSIN] | – | – | – | – | – | – | – | Activity (Aorta [23]): 100%; Activity (Aorta [24]): 0%
